The values below come from ChEMBL document CHEMBL1201862, “PubChem BioAssay data set” (2004).

Where “and” joins values, the source holds several entries; their conditions need not be identical. Equal entries are not always repeated.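 These data come from cells grown in 96-well plates and exposed to compound for 48 hours at five concentrations. GI50 is the concentration that inhibits growth by half.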 Calls of active or inactive are those of the source. No stated cut-off is given here; in the data, active = GI50 up to about 1.1 µM and inactive = higher. Some results are limits rather than exact numbers.

Among the test systems are KM12; 786-0; SNB-75; IGROV-1; SK-MEL-5; NCI-H460; SK-OV-3; M14; MDA-N; SNB-19; A498; RXF 393; SN12C; EKVX; UACC-62; MDA-MB-231; U-251; SF-268.
What all share (experiment): NCI anticancer screen, dose series, 48 h

As for `CC[C@H](C)c1occ2c(O)c(C(=O)O)c(=O)cc-2c1C`, the GI50 in the test on KM12 was 18.5 µM (inactive); with 786-0, 40.1 µM (inactive); in the test on SNB-75 it was 55.6 µM (inactive); with IGROV-1, 18.6 µM (inactive); with SK-MEL-5 it was 18.3 µM (inactive); in the test with NCI-H460 it was 24.3 µM (inactive). Further, the GI50 is 26.1 µM (inactive) in the test with SK-OV-3; 31.5 µM (inactive) in the test on M14; 24 µM (inactive) in the test on MDA-N; 31.7 µM (inactive) with SNB-19; 29 µM (inactive) with A498; 15.5 µM (inactive) with RXF 393. Also, the GI50 in the test with SN12C is 22.5 µM (inactive); with EKVX, 30.8 µM (inactive); in the test with UACC-62, 17.3 µM (inactive); in the test with MDA-MB-231 it was 23 µM (inactive); in the test on U-251 it was 28.5 µM (inactive); in the test with SF-268, 33.7 µM (inactive).
On to `O=C1N[C@H]2c3c(Cl)sc(Cl)c3C(=O)[C@H]2O1`, for which the GI50 in the test on KM12 is 39.1 µM (inactive); with 786-0, 20.2 µM (inactive); with SNB-75 it was 19.1 µM (inactive); in the test on IGROV-1, 3.55 µM (inactive); with SK-MEL-5, 24 µM (inactive); in the test on NCI-H460, 8.89 µM (inactive). In addition, the GI50 in the test with SK-OV-3 is 23.1 µM (inactive); with M14, 9.82 µM (inactive); in the test with MDA-N it was 24 µM (inactive); in the test with SNB-19, 20.6 µM (inactive); in the test on A498 it was 20.2 µM (inactive); in the test on RXF 393 it was 25.6 µM (inactive). Besides, the GI50 with SN12C is 8.71 µM (inactive); with EKVX, 12.3 µM (inactive); with UACC-62, 19.1 µM (inactive); in the test on MDA-MB-231, 25.6 µM (inactive); in the test on U-251, 5.51 µM (inactive); in the test with SF-268, 17 µM (inactive).
With `C[C@]12CC[C@H]3[C@@H](CC=C4C[C@@H](N5CCCC5)CC[C@@]43C)[C@@H]1C[C@H](N1CCCCC1)[C@@H]2O`, the GI50 with KM12 was > 100 µM (inactive); in the test on 786-0, 91.8 µM (inactive); in the test on SNB-75, > 100 µM (inactive); in the test on IGROV-1, > 100 µM (inactive); in the test with SK-MEL-5 it was 51.1 µM (inactive); in the test on NCI-H460 it was > 100 µM (inactive). The GI50 was > 100 µM (inactive) in the test on SK-OV-3; 20.3 µM (inactive) with M14; 61.1 µM (inactive) in the test on MDA-N; > 100 µM (inactive) in the test on SNB-19; > 100 µM (inactive) in the test with A498; > 100 µM (inactive) in the test with RXF 393. The GI50 in the test with SN12C, in the test on EKVX, with UACC-62, in the test with MDA-MB-231, in the test with U-251 and in the test with SF-268 was > 100 µM (inactive) throughout.
Consider `CCCc1nnc2sc(COc3cc(Cl)c(OCc4nn5c(CCC)nnc5s4)cc3Cl)nn12`, for which the GI50 in the test with KM12 is 70.1 µM (inactive); in the test with 786-0, 35.7 µM (inactive); with SNB-75, 21.7 µM (inactive); in the test with IGROV-1, 25.2 µM (inactive); in the test with SK-MEL-5, 12.3 µM (inactive); in the test with NCI-H460 it was 42.8 µM (inactive). Besides, the GI50 in the test with SK-OV-3 is 24.5 µM (inactive); with M14, 44.7 µM (inactive); with MDA-N, 37.6 µM (inactive); in the test on SNB-19, 31.5 µM (inactive); in the test on A498, 37.8 µM (inactive); in the test with RXF 393 it was 31.6 µM (inactive). In addition, the GI50 was 57 µM (inactive) with SN12C; 22.6 µM (inactive) in the test with EKVX; 24.2 µM (inactive) in the test on UACC-62; 47.1 µM (inactive) with MDA-MB-231; 37.2 µM (inactive) with U-251; 21.7 µM (inactive) in the test on SF-268.
On to `CCN(CC)c1ccc(NC(=S)NN(C)C)cc1`, for which the GI50 with KM12, with 786-0, in the test on SNB-75, with IGROV-1, with SK-MEL-5 and in the test with NCI-H460 was > 10 µM (inactive) throughout. Also, the GI50 with SK-OV-3, in the test with M14, in the test on MDA-N, with SNB-19, in the test on A498 and with RXF 393 was > 10 µM (inactive) each time. Further, the GI50 with SN12C, in the test with EKVX, in the test on UACC-62, with MDA-MB-231, with U-251 and with SF-268 was > 10 µM (inactive) throughout.
Turning to `Cc1c2ccccc2c(C2C3C(=O)N(c4cccc5ccccc45)C(=O)C3ON2Cc2ccc(CC(N)=O)cc2)c2ccccc12` (stereo not drawn), the GI50 in the test with KM12 was 18.2 µM (inactive); in the test on 786-0, 24.4 µM (inactive); in the test with SNB-75 it was 9.55 µM (inactive); in the test with IGROV-1, 17.7 µM (inactive); in the test with SK-MEL-5 it was 10.5 µM (inactive); in the test with NCI-H460, 13.5 µM (inactive). Also, the GI50 in the test on SK-OV-3 was 30.8 µM (inactive); with M14, 15 µM (inactive); in the test on MDA-N it was 11.5 µM (inactive); with SNB-19 it was 19.6 µM (inactive); in the test on A498 it was 35.6 µM (inactive); in the test with RXF 393, 8.59 µM (inactive). In addition, the GI50 in the test with SN12C was 15.3 µM (inactive); in the test on EKVX, 14.2 µM (inactive); in the test with UACC-62, 14.4 µM (inactive); in the test with MDA-MB-231, 23.3 µM (inactive); in the test with U-251, 19.8 µM (inactive); with SF-268 it was 23.6 µM (inactive).
`c1ccc2c(c1)N=c1ccccc1=P21c2ccccc2Nc2ccccc21`: the GI50 was 0.132 µM (active) in the test on KM12; 1.03 µM (active) in the test with 786-0; 0.246 µM (active) in the test on SNB-75; 0.352 µM (active) in the test on IGROV-1; 0.188 µM (active) in the test with SK-MEL-5; 0.186 µM (active) with NCI-H460. Besides, the GI50 is 0.265 µM (active) in the test with SK-OV-3; 0.518 µM (active) in the test with M14; 0.379 µM (active) with MDA-N; 0.325 µM (active) in the test on SNB-19; 0.581 µM (active) with A498; 0.438 µM (active) in the test with RXF 393. Besides, the GI50 with SN12C is 1.5 µM (inactive); in the test with EKVX it was 5.04 µM (inactive); in the test on UACC-62, 0.611 µM (active); in the test with MDA-MB-231, 2.69 µM (inactive); in the test with U-251 it was 0.366 µM (active); with SF-268, 0.614 µM (active).
As for `COc1ccc(-c2c(C#N)c(N)n(C3OC(CO)C(O)C(O)C3O)c(=S)c2C#N)cc1` (stereo not drawn), the GI50 in the test on KM12 was > 100 µM (inactive); in the test on 786-0 it was > 100 µM (inactive); with SNB-75, > 100 µM (inactive); with IGROV-1 it was 72.1 µM (inactive); in the test with SK-MEL-5, > 100 µM (inactive) and 74 µM (inactive); with NCI-H460, 97.1 µM (inactive). Also, the GI50 in the test on SK-OV-3 was > 100 µM (inactive); in the test with M14, > 100 µM (inactive); in the test with MDA-N, > 100 µM (inactive); with SNB-19 it was > 100 µM (inactive); in the test with A498, > 100 µM (inactive) and 52.6 µM (inactive); in the test on RXF 393, > 100 µM (inactive). The GI50 in the test with SN12C was > 100 µM (inactive); in the test on EKVX it was 66.2 µM (inactive); with UACC-62 it was > 100 µM (inactive); in the test with MDA-MB-231 it was > 100 µM (inactive); in the test with U-251, > 100 µM (inactive); in the test on SF-268, > 100 µM (inactive).
Regarding `C=CCNC1=C2C[C@@H](C)C[C@@H](OC)[C@H](OC(=O)CN)[C@H](C)/C=C(\C)[C@@H](OC(N)=O)[C@H](OC)/C=C\C=C(/C)C(=O)NC(=CC1=O)C2=O`, the GI50 is 0.27 µM (active) in the test on KM12; 1.49 µM (inactive) in the test on 786-0; 1.7 µM (inactive) in the test on SNB-75; 0.927 µM (active) with IGROV-1; 0.476 µM (active) in the test on SK-MEL-5; 0.504 µM (active) in the test with NCI-H460. For the same compound, the GI50 was 0.162 µM (active) with SK-OV-3; 0.371 µM (active) in the test on M14; 0.223 µM (active) in the test on MDA-N; 5.4 µM (inactive) with SNB-19; 0.74 µM (active) in the test with A498; 1.95 µM (inactive) in the test with RXF 393. For the same compound, the GI50 was 0.497 µM (active) in the test on SN12C; 5.77 µM (inactive) with EKVX; 0.381 µM (active) in the test on UACC-62; 3.71 µM (inactive) with MDA-MB-231; 1.29 µM (inactive) in the test with U-251; 5.73 µM (inactive) with SF-268.
`Cc1c(O)c(OC2OC(CO)C(O)C(O)C2O)cc2c1CC[C@@H]1C2(C)C(=O)C[C@]2(C)[C@@H]([C@@](C)(O)C(O)CCC(C)(C)O)[C@H](O)C[C@@]12C` (stereo partly drawn): the GI50 in the test on KM12, in the test on 786-0, in the test on SNB-75, with IGROV-1, in the test with SK-MEL-5 and in the test with NCI-H460 was > 100 µM (inactive) in each case. Also, the GI50 in the test with SK-OV-3, in the test on M14, in the test on MDA-N, in the test with SNB-19, in the test on A498 and in the test with RXF 393 was > 100 µM (inactive) each time. Also, the GI50 with SN12C, with EKVX, in the test on UACC-62, in the test with MDA-MB-231, with U-251 and with SF-268 was > 100 µM (inactive) each time.
As to `COc1cccc(-c2cc(=O)c3ccc(C)nc3[nH]2)c1`, the GI50 with KM12 was 0.0366 µM (active); with 786-0, 0.0491 µM (active); in the test on SNB-75, 0.0201 µM (active); with IGROV-1 it was 0.0461 µM (active); with SK-MEL-5 it was 0.036 µM (active); in the test on NCI-H460, 0.0451 µM (active). The GI50 was 0.051 µM (active) with SK-OV-3; 0.0454 µM (active) in the test with M14; 0.0115 µM (active) in the test on MDA-N; 0.0592 µM (active) in the test with SNB-19; 0.0405 µM (active) with A498; 0.0274 µM (active) in the test on RXF 393. For the same compound, the GI50 with SN12C was 0.122 µM (active); with EKVX it was 1.96 µM (inactive); in the test with UACC-62 it was 0.0436 µM (active); in the test on MDA-MB-231 it was 0.245 µM (active); in the test with U-251 it was 0.0508 µM (active); in the test with SF-268, 0.0671 µM (active).
